Results taken from patent US20220387433A1, “TYPE V PHOSPHODIESTERASE INHIBITOR COMPOSITIONS, METHODS OF MAKING THEM AND METHODS OF USING THEM IN PREVENTING OR TREATING ELEVATED PULMONARY VASCULAR PRESSURE OR PULMONARY HEMORRHAGES” (American Regent, Inc., priority 2019, published 2022).

How the values were obtained:
horses = experiment: Target Animal Safety (TAS) study / toxicity of formulations in horses; assay type: in vivo; details: E-4021 containing meglumine, compared to E-4021 containing propylene glycol
Text: The drug product vehicle contains about 35-45 wt % alcohol, 46 wt % propylene glycol and 10 wt % WFI. […] Test doses (in horses) with the vehicle confirmed that the dose toxicity was due to the vehicle. More specifically, propylene glycol was believed to be the cause of toxicity.

[1] = Pharmacokinetic study, plasma and urine concentrations; assay type: in vivo, horses
Experimental: A pharmacokinetic (PK) study was conducted in six horses, namely three mares, two geldings and one stallion. The study measured plasma and urine concentrations of E-4021 (EIPHISOL®) after IV administration of 100 mg of E-4021 per horse. Plasma samples were collected pretreatment and then at 10, 20 and 30 minutes and 1, 1.5, 2, 2.5, 3, 3.5, 4, 4.5, 5, 5.5, 6, 8, 12, 17, 24 and 30 hours post administration. […] The mean area under the concentration-time curve extrapolated to infinity (AUC0-∞) was 217±83.5 hr*ng/mL. The mean volume of distribution (V) was 6.06±3.99 L/kg.
Urine was collected for assaying E-4021 during four intervals: (1) a pre-dose sample collected from approximately −24 hours through 0 hours, (2) a 0 hour to 12 hour post-dose sample, (3) a 12 hour to 24 hour post-dose sample, and, (4) a 24 hour to 36 hour-post dose sample. There was wide variability in the concentration of E-4021 measured in urine, with maximum concentration ranging from 130-974 ng/mL. […] E-4021 concentration in urine remained above the quantitation limit (3 ng/mL) for four of the six horses at 36 hours post-dose.

mature, healthy horses = experiment: Twenty-four week (6-month) target animal safety (TAS) study; assay type: in vivo
Experimental: A twenty-four week (6-month) target animal safety (TAS) study was conducted to evaluate the safety of E-4021 (EIPHISOL®) in mature, healthy horses. The study was designed with 4 treatment groups of eight horses (two geldings, two stallions and four mares) in each group. Treatment groups included a Control (Group I: Isotonic saline at a volume equivalent to the largest volume given in the 5× (Group IV); 1× (Group II: 0.125 mg E4021 per pound body weight); 3× (Group III: 0.375 mg E4021 per pound body weight; and 5× (Group IV: 0.625 mg E4021 per pound body weight). Treatment groups were dosed intravenously alternating between the left and right jugular vein once every 7 days for 25 doses.
Breeds represented in this study included Thoroughbred, Quarter Horse, Paint, Arabian, and Grade. The overall age ranged from 3 to 17 years, with a mean of 7.6±4.49 years. The majority of the horses were Thoroughbred (59.4%).
Physical Examinations and Post-Dose Observations: Post-dose observations were conducted after every treatment to detect any acute abnormalities at 10-, 30-, and 60-minute intervals. […] As all groups (including the controls) recorded this finding (Table I), it is presumed that a factor other than the test article was responsible.

exercising horses = experiment: Simulated race test (SRT) on high-speed treadmill; assay type: in vivo
[2] = males in Group II (1×) and Group III (3×)
[3] = males in Group III (3×) and Group IV (5×)
[4] = 100 mg (15005, meglumine) 90 min prior to SRT
[5] = 100 mg (16006, meglumine), 90 min., 4 hrs., 24 hrs. and 48 hrs. post-injection

sodium 1-[6-chloro-4-(3,4-methylenedioxybenzyl)-aminoquinazolin-2-yl]piperidine-4-carboxylate sesquihydrate [E-4021]
Renal toxicity or blood in the urine (horses): did not have renal toxicity or blood in the urine | Mean clearance (CL) ([1]; IV 100 mg per horse): 1.17 ± 0.690 L/h/kg | Mean volume of distribution (V) ([1]; IV 100 mg per horse): 6.06 ± 3.99 L/kg | Maximum concentration in urine ([1]; IV 100 mg per horse, range over six horses): 130 to 974 ng/mL | Concentration in urine at 36 hours post-dose ([1]; above quantitation limit for four of the six horses): > 0.003 µg/mL | Collection interval of maximum urine concentration ([1]; all six horses): 12-hour post-dose collection | Mean Tmax ([1]; plasma, IV 100 mg per horse): 0.195 ± 0.020 h | Mean area under the concentration-time curve extrapolated to infinity (AUC0-∞) ([1]; plasma, IV 100 mg per horse): 0.217 ± 0.0835 µg·h/mL | Mean elimination half-life (T½) ([1]; plasma, IV 100 mg per horse): 4.42 ± 2.91 h | Mean maximum concentration (Cmax) ±SD ([1]; plasma, IV 100 mg per horse, six horses): 0.295 ± 0.118 µg/mL | Visual findings ataxia/dragging toes or behavioral/sedation, counted once per horse per group (mature, healthy horses; 1X, PE Day 0): 6 | Visual findings ataxia/dragging toes or behavioral/sedation, counted once per horse per group (mature, healthy horses; 1X, PE Day 28): 4 | Visual findings ataxia/dragging toes or behavioral/sedation, counted once per horse per group (mature, healthy horses; 1X, PE Day 56): 2 | Visual findings ataxia/dragging toes or behavioral/sedation, counted once per horse per group (mature, healthy horses; 1X, PE Day 84): 1 | Visual findings ataxia/dragging toes or behavioral/sedation, counted once per horse per group (mature, healthy horses; 1X, PE Day 112): 1 | Visual findings ataxia/dragging toes or behavioral/sedation, counted once per horse per group (mature, healthy horses; 1X, PE Day 140): 1 | Visual findings ataxia/dragging toes or behavioral/sedation, counted once per horse per group (mature, healthy horses; 1X, PE Day 168): 1 | Physical examination findings, treatment-related (mature, healthy horses; 1× and 3×): no major abnormal physical examination findings | Visual findings ataxia/dragging toes or behavioral/sedation, counted once per horse per group (mature, healthy horses; 3X, PE Day 0): 2 | Visual findings ataxia/dragging toes or behavioral/sedation, counted once per horse per group (mature, healthy horses; 3X, PE Day 28): 0 | Visual findings ataxia/dragging toes or behavioral/sedation, counted once per horse per group (mature, healthy horses; 3X, PE Day 56): 1 | Visual findings ataxia/dragging toes or behavioral/sedation, counted once per horse per group (mature, healthy horses; 3X, PE Day 84): 0 | Visual findings ataxia/dragging toes or behavioral/sedation, counted once per horse per group (mature, healthy horses; 3X, PE Day 112): 0 | Visual findings ataxia/dragging toes or behavioral/sedation, counted once per horse per group (mature, healthy horses; 3X, PE Day 140): 1 | Visual findings ataxia/dragging toes or behavioral/sedation, counted once per horse per group (mature, healthy horses; 3X, PE Day 168): 0 | Visual findings ataxia/dragging toes or behavioral/sedation, counted once per horse per group (mature, healthy horses; 5X, PE Day 0): 6 | Visual findings ataxia/dragging toes or behavioral/sedation, counted once per horse per group (mature, healthy horses; 5X, PE Day 28): 4 | Visual findings ataxia/dragging toes or behavioral/sedation, counted once per horse per group (mature, healthy horses; 5X, PE Day 56): 3 | Visual findings ataxia/dragging toes or behavioral/sedation, counted once per horse per group (mature, healthy horses; 5X, PE Day 84): 4 | Visual findings ataxia/dragging toes or behavioral/sedation, counted once per horse per group (mature, healthy horses; 5X, PE Day 112): 2 | Visual findings ataxia/dragging toes or behavioral/sedation, counted once per horse per group (mature, healthy horses; 5X, PE Day 140): 2 | Visual findings ataxia/dragging toes or behavioral/sedation, counted once per horse per group (mature, healthy horses; 5X, PE Day 168): 2 | Blood urea nitrogen (BUN) vs Group I (Control) (mature, healthy horses; Day 140 for Group II (1×) and Day 154 for Group III (3×)): significantly higher | MCH vs Group I (Control) (mature, healthy horses; Group II (1×) and Group IV (5×)): no significant differences | Direct bilirubin vs Group I (Control) (mature, healthy horses; Group II (1×), overall): significantly lower | Erythrocytes vs Group I (Control) (mature, healthy horses; Group II (1×), overall): significantly lower | Hematocrit vs Group I (Control) (mature, healthy horses; Group II (1×), overall): significantly lower | Hemoglobin vs Group I (Control) (mature, healthy horses; Group II (1×), overall): significantly lower | MCHC vs Group I (Control) (mature, healthy horses; Group II (1×), Days 14, 70, and 154): significantly higher | Leukocytes vs Group I (Control), group-by-time (mature, healthy horses; Group II (1×), Days 14 and 154): significantly lower | Glucose vs Group I (Control) (mature, healthy horses; Group II (1×), Days 28, 42, 56, 70, and 140): significantly lower | APTT vs Group I (Control) (mature, healthy horses; Group II (1×), Days 56, 140, and 168): significantly higher | Fibrinogen vs Group I (Control) (mature, healthy horses; Group III (3×), overall): significantly lower | MCHC vs Group I (Control) (mature, healthy horses; Group III (3×), Day 0): significantly lower | MCH vs Group I (Control) (mature, healthy horses; Group III (3×), Day 56): significantly higher | APTT vs Group I (Control) (mature, healthy horses; Group III (3×), Days 28, 56, 98, 140, and 168): significantly higher | Leukocytes vs Group I (Control), group-by-time (mature, healthy horses; Group III (3×), Days 84, 98, 112, 140, and 168): significantly higher | Leukocytes vs Group I (Control), group-by-time (mature, healthy horses; Group IV (5×)): no significant differences | APTT vs Group I (Control) (mature, healthy horses; Group IV (5×), Day 84): significantly lower | Blood urea nitrogen (BUN) vs Group I (Control) (mature, healthy horses; Group IV (5×), Days 28, 42, 84, and 112): significantly lower | Glucose vs Group I (Control) (mature, healthy horses; Group IV (5×), Days 28, 84, 140, and 168): significantly lower | APTT vs Group I (Control) (mature, healthy horses; Group IV (5×), Days 56, 70, and 126): significantly higher | MCHC vs Group I (Control) (mature, healthy horses; Group IV (5×), Days 98, 112, and 154): significantly higher | Physical examination findings at and immediately after dosing (mature, healthy horses; Group IV (5×), also recorded in controls, not dose related, not considered treatment related): transient locomotion (ataxia/dragging toes), or neurodepressant type effects (behavioral/sedation) | Microscopic findings at the injection site(s) (mature, healthy horses; IV jugular once every 7 days for 25 doses, attributed to minor trauma of injection procedure): minimal fibrosis of the dermis or vein, and minimal degeneration and necrosis of the underlying skeletal muscle | Urinalysis findings (mature, healthy horses; all groups): did not appear to be any indication of abnormal urinalysis findings | Bone marrow smears (mature, healthy horses; control and test-article treated horses, no dose relationship or correlation with decreased platelet counts on Day 168): low incidence of decreased megakaryocytes | Leukocytes vs Group I (Control), group-by-sex (mature, healthy horses; female horses in Group III (3×) and Group IV (5×)): significantly higher | Globulin vs Group I (Control) (mature, healthy horses; females in Group II (1×)): significantly higher | Albumin vs Group I (Control) (mature, healthy horses; females in Group II (1×) and Group III (3×)): significantly lower | Sorbitol dehydrogenase vs Group I (Control) (mature, healthy horses; females in Group II (1×) and Group IV (5×)): significantly higher | Lymphocytes/leukocytes vs control (mature, healthy horses; females, all treatment groups): no significant differences | Magnesium vs control (mature, healthy horses; females, all treatment groups): no significant difference | Neutrophils/leukocytes vs control (mature, healthy horses; females, all treatment groups): no significant differences | Macroscopic findings limited to the injection site (mature, healthy horses; in vivo): no macroscopic findings | Microscopic findings: mandibular salivary glands, related to test article (mature, healthy horses; males given 1× and 3×, limited number examined): no microscopic findings | Liver to brain weight ratio (%) compared to control males (mature, healthy horses; males given the 3× dose, p=0.033, small magnitude, no dose response): statistically higher | Mean liver to body weight ratio (%) compared to control males (mature, healthy horses; males given the 3× dose, p=0.064, small magnitude, no dose response): statistically higher | Leukocytes vs Group I (Control), group-by-sex (mature, healthy horses; males in Group II (1×)): significantly lower | Albumin vs Group I (Control) (mature, healthy horses; [2]): significantly higher | Sorbitol dehydrogenase vs Group I (Control) (mature, healthy horses; [2]): significantly higher | Globulin vs Group I (Control) (mature, healthy horses; [3]): significantly lower | Lymphocytes/leukocytes vs Group I (Control) (mature, healthy horses; [3]): significantly higher | Magnesium vs Group I (Control) (mature, healthy horses; males in Group IV (5×)): significantly lower | Neutrophils/leukocytes vs Group I (Control) (mature, healthy horses; males in Group IV (5×)): significantly lower | Testicular changes, relation to dose (mature, healthy horses; most consistent with spontaneous background findings): did not show evidence of a dose response | Microscopic findings: testes (mature, healthy horses; often with mononuclear cell infiltration and/or Leydig cell pigment accumulation, not in the single control male): Minimal seminiferous tubule degeneration | Adverse event of abdominal colic (mature, healthy horses; one horse Group II (1×) Day 51, one horse Control Day 54): did not appear to be associated with test article administration | Macroscopic observations at the end of dosing (mature, healthy horses; previous trauma, infectious diseases, degenerative/aging changes or euthanasia artifact): attributed to spontaneous background alterations | Fecal analysis findings (mature, healthy horses; two horses in Group III (3×) at Day 83, other groups normal): abnormal intestinal mucosa | Oxygen uptake compared to control (exercising horses; [4]): not significantly different | PAsO2 compared to control (exercising horses; [4]): not significantly different | Plasma lactate compared to control (exercising horses; [4]): not significantly different | Duration of pulmonary artery pressure reduction effect (exercising horses; 100 mg (16006, containing meglumine), post-injection for SRT): at least 24 hours | Oxygen uptake compared to control (exercising horses; [5]): not significantly different | PAsO2 compared to control (exercising horses; [5]): not significantly different | Plasma lactate compared to control (exercising horses; [5]): not significantly different | PA pressure during exercise, comparison of doses and times (exercising horses; 100 mg dose given 90 minutes prior to exercise, propylene glycol formulation, P<0.05): lowest PA pressure | Pulmonary artery pressures during intense exercise (exercising horses; IV, propylene glycol formulation of Table 1, Phase II and III, most apparent at 2-minute point of high intensity run): substantially and significantly lower | Effect on VO2 (exercising horses; SRTs in Phase II and Phase III): no effect | Pulmonary artery pressure after exercise at 48 hours (exercising horses; about 100 mg E-4021 containing meglumine (FIG. 21)): lower than the control | Pulmonary artery pressure compared to control (exercising horses; single dose 100 mg (15005, meglumine formulation of Table 3) 90 minutes prior to SRT): reduces
